For experiment [1], the system named is tracheal organ cultures obtained from vitamin A deficient hamsters. Kind of experiment: tissue or blood. Format: cell-based, hamster. The conditions noted are these: for EC50: Mesocricetus auratus, dose for reversal of keratinization in epithelium of 50% of retinoid-deficient hamster tracheas in organ culture, trans-retinoic acid run with each compound, read-out: ED50 (the source's name); for activity relative to all trans-retinoic acid: log units less than the standard; for activity (in words): reversal of keratinization. An excerpt: An evaluation of the anticancer properties of the heteroarotinoids was made via the standard hamster tracheal organ culture bioassay (see D. L. Newton, W. R. Henderson, and M. B. Sporn in Structure-Activity Relationships of Retinoids, National Cancer Institute, Revised Edition, Feb. 26, 1980; and D. L. Newton, W. R. Henderson, and M. B. Sporn, Cancer Research, 40, 3413 [1980]). The assay involves the ability of a test compound in vitro to reverse keratinization in tracheal organ cultures obtained from vitamin A deficient hamsters. The relationship of vitamin A deficient epithelial tissues and precancerous lesions is well known (see C. E. Orfanos, Retinoids-Advances in Basic Research and Therapy, Springer-Verlag, New York, 1981). For example, the addition of retinoids can reverse the anaplastic epithelial lesions induced in prostate glands by chemical carcinogens (see D. P. Chopra and L. J. Wilkoff, Proc. Am Assoc. Cancer Research, 16, 35 (1975); and I. Lasnitzki, British Journal of Cancer, 9, 434 [1955]). The basic procedure for the bioassay involving the vitamin A deficient hamster tracheal organ culture is presented below with the results obtained for some of the compositions.
The harvested tracheas were cultured in a serum-free medium and were gassed with 50% O2, 45% N2, and 5% CO2. The serum-free culture consists of CMRL Medium 1066 with crystalline bovine insulin (1.0 μg/mL), hydrocortisone hemisuccinate (0.1 μg/mL), glutamine (2 mM), pencillin (100 inits/mL), and streptomycin (100 μg/mL). The cultures were incubated for 3 days at 35°-36° C. After incubation in the retinoid-free medium, some of the tracheas were harvested. Most of the specimens had significant squamous metaplasia. The remaining cultures were divided into 3 groups. The first group was treated with the experimental heteroarotinoid in spectrograde dimethyl sulfoxide (DMSO) at concentrations of 10^-8 M, 10^-9 M, and 10^-10 M (final concentration of DMSO in culture medium was 0.1%). […] A final culture was prepared with only DMSO present.
The culture medium was changed three times per week for 10 days. At the end of that time, all tracheas were harvested and fixed in a 4% (or sometimes 10%) formaldehyde-1% glutaraldehyde solution. The material was then embedded in paraffin and cross-sections of the tracheas were examined under a microscope for the presence of keratin or keratohyaline granules. A synthetic retinoid was judged as having good anticancer activity if neither keratin nor keratohyaline granules were present or if only keratohyaline granules were […]. […] Sloughing of the cells in the culture studies was common with the toxic all trans-retinotic acid but was not observed with the heteroarotinoids in this work.
^a ED50 (M) is the dose for reversal of keratinization in
epithelium of 50% of retinoiddeficient hamster tracheas in organ culture.

For experiment [2], the system named is HL-60 cells. Kind of experiment: induction of differentiation of HL-60 cells (NBT reduction). The conditions noted are these: for EC50: Homo sapiens; for cells induced to differentiate: 3 μM. Format: cell-based, human. How it is done:
In order to evaluate the efficacy of the heteroarotinoids to induce HL-60 cell differentiation along the granulocytic maturation pathway, HL-60 cells were grown in a serum-free medium consisting of HRPMI 1640 supplemented with […] 4-(2-hydroxyethyl)-1-piperazineethane sulfonic acid, 5 μg of insulin/mL, and 5 μg of transferrin/mL. These mature cells, unlike the uninduced HL-60, produced superoxide anion when simulated with an appropriate agent, such as TPA. The ability of the individual cells to produce superoxide can be measured by incubating cells with the water-soluble yellow dye, nitroblue tetrazolium (NBT). NBT is reduced to a water-insoluble blue-black formazan by superoxide. This formazan precipitate is associated with those cells that produce superoxide. Thus, the percentage of cells in a population that produce superoxide (NBT-positive cells) can be enumerated under a light microscope.
After incubation for 4 days at 37° C. in a humidified atmosphere of 5% CO2 and air, the capacity of the cells to reduce NBT was determined. Viable cells (10^6) were harvested by centrifugation and suspended in 0.5 mL of RPMI 1640 containing 20% fetal bovine serum. This cell suspension was mixed with an equal volume of phosphate buffered saline containing 1 mg of NBT/mL and […]. The reaction mixture was incubated at 37° C. for 25 minutes, and the reaction was terminated by cooling in an ice water bath. Cytospin slides were prepared from a portion of this reaction mixture and stained with Wright-Giemsa. A minimum of 200 cells were counted under light microscopy to determine the percentage of cells with cell-associated formazan.

Experiment [3] relates to ornithine decarboxylase (ODC). Kind of experiment: suppression of TPA induced ornithine decarboxylase (ODC) in mouse skin. The conditions noted are these: for activity in inhibiting ODC induction by TPA (in words): mouse, in vivo. The experiment is classed as in vivo. As for the experimental part:
In the ODC assay, either 13-cis-retinoic acid or trans-retinoic acid was employed. The following Table summarizes the result of the ODC assays.
In the screening tests of the Table, the selected retinoids in 0.2 ml of acetone were applied 1 hour before the application of 10 nmole of TPA to the shaved backs of mice; the mice where then sacrificed for ODC assay 5 hours after TPA treatment. Epidermus was separated, homogenized, and centrifuged at 30,000×g. Soluble epidermal ODC activity was assayed. The retinoids were evaluated in three independent experiments (3 groups of mice with 3 mice per group) and the results from the experiments were normalized (% inhibition) for comparison. […] Which standard is used appears to be relatively unimportant for determining activity in the assay, but the data presented in the Table identifies the standard for sake of clarity and accuracy of presentation. Thus, the presence of the heteroatom in these arotinoids has not eliminated biological activity. […] Consequently, the nature of the terminus group is also important.

[4] abbreviates: HL-60, 96 h, 4 days at 37° C., read-out: ED50 (half-maximal response).
The mark [5] stands for this setting: 34 nmol retinoid + TPA, second experiment (standard 13-cis-retinoic acid).
[6] abbreviates: 13-cis-retinoic acid as the standard.
[7] abbreviates: 34 nmol retinoid + TPA, third experiment (standard trans-retinoic acid).
Where [8] appears, read: trans-retinoic acid as a standard.
Where [9] appears, read: 17 nmol retinoid + TPA, first experiment.
Setting [10] is: 17 nmol retinoid + TPA, second experiment.

SMILES strings stand for the structures. Entries after “also recorded” stand apart in the source; their conditions may differ. Read-outs that look alike come from different tables or passages of the source. Bounds are passed on as bounds.

For `CCOC(=O)c1ccc(/C=C(\C)c2ccc3c(c2)C(C)(C)CCS3)cc1` [1 (X = S, R = C2 H5), Ethyl (E)-4-[2-(3,4-dihydro-4,4-dimethyl-2H-1-benzothiopyran-6-yl)-1-propenyl]benzoate], the “% Active” value in experiment [1] (10^-9 M) was found to be 100%; in experiment [1] (10^-10 M), 53.8%; in experiment [1] (10^-11 M) it was 28.6%; in experiment [1] (10^-12 M), 33.7%. The EC50 in experiment [1] amounted to 0.06 nM. The “activity relative to all trans-retinoic acid” value in experiment [1] is “approximately one-half log unit less than the all trans-retinoic acid”. The “activity (in words)” value in experiment [1] was “very good activity”.

As for `C/C(=C\c1ccc(C(=O)O)cc1)c1ccc2c(c1)C(C)(C)CO2` [compound 26, (E)-4-[2-(2,3-Dihydro-3,3-dimethyl-5-benzofuranyl)-1-propenyl]benzoic acid], the EC50 in experiment [2] (setting [4]) was greater than 3000 nM.

On to `C/C(=C\c1ccc(C#N)cc1)c1ccc2c(c1)C(C)(C)CCO2` [compound 34], for which the “ODC Activity” value in experiment [3] (setting [5]) is reported as 1.77 ± 0.32 nmol CO2 /60 min/mg protein. Further, the “relative activities in suppressing TPA induction of ODC” value (shortened to “relative activities”) in experiment [3] (setting [6]) is on record as 13-cis-retinoic acid 31>34.

As for `CCOC(=O)c1ccc(/C=C(\C)c2ccc3c(c2)C(C)(C)CC[S+]3[O-])cc1` (stereo not shown) [(X = S)--O, R = C2 H5), Ethyl (E)-4-[2-(3,4-Dihydro-4,4-dimethyl-2H-1-benzothiopyran-1-oxo-6-yl)-1-propenyl]benzoate], the “% Active” value came out at 71.4% in experiment [1] (10^-8 M), 71.4% in experiment [1] (10^-9 M) and 18.6% in experiment [1] (10^-10 M). For the same compound, in experiment [1], the EC50 worked out at 0.6 nM. In addition, the “activity (in words)” value in experiment [1] was “less active but nevertheless displayed activity within the range of the standard”.

Turning to `C/C(=C\c1ccc(CO)cc1)c1ccc2c(c1)C(C)(C)CCO2` [compound 35, (E)-4-[2-Methyl-2-(4,4-dimethyl-6-chromanyl)]benzyl Alcohol], in experiment [2] (setting [4]), the EC50 is greater than 3000 nM. In experiment [3] (setting [7]), the “% of Inhibition as Compared to Control” value amounted to 68% and the “ODC Activity” value is on record as 1.7 ± 0.1 nmol CO2 /60 min/mg protein. The “activity in inhibiting ODC induction by TPA (in words)” value (from here on “activity in inhibiting ODC induction”) in experiment [3] is listed as “less active”. Also, in experiment [3] (setting [8]), the “relative activities” value is “trans-retinoic acid >24>35>36”.

As for `CC1=C(/C=C/C(C)=C/C=C/C(C)=C\C(=O)O)C(C)(C)CCC1` [13-cis-retinoic acid, reference compound], the “% of Inhibition as Compared to Control” value in experiment [3] (setting [9]) is listed as 89%; in experiment [3] (setting [10]), 92%. The “ODC Activity” value is on record as 0.1 ± 0.01 nmol CO2 /30 min/mg protein in experiment [3] (setting [9]) and 0.14 ± 0.04 nmol CO2 /60 min/mg protein in experiment [3] (setting [10]). Further, the “relative activities” value in experiment [3] (setting [6]) is reported as 13-cis-retinoic acid 31>34.

In the case of `COC(=O)c1ccc(/C=C(\C)c2ccc3c(c2)C(C)(C)CO3)cc1` [compound 24, Methyl (E)-4-[2-(2,3-Dihydro-3,3-dimethyl-5-benzofuranyl)-1-propenyl]benzoate], in experiment [2], the “cells induced to differentiate” value is 3 to 5%. Besides, the EC50 in experiment [2] (setting [4]) is greater than 3000 nM. In experiment [3] (setting [7]), the “% of Inhibition as Compared to Control” value was 72% and the “ODC Activity” value was 1.5 ± 0.4 nmol CO2 /60 min/mg protein. In addition, in experiment [3], the “activity in inhibiting ODC induction” value is listed as “strongest activity; also recorded: strong activity as compared to the control”. Besides, in experiment [3] (setting [8]), the “relative activities” value is given as “trans-retinoic acid >24>35>36”.

With `CCOC(=O)c1ccc(/C=C(\C)c2ccc3c(c2)C(C)(C)CCO3)cc1` [(X = O, R = C2 H5), Ethyl (E)-4-[2-(3,4-Dihydro-4,4-dimethyl-2H-1-benzopyran-6-yl)-1-propenyl]benzoate], the “% Active” value in experiment [1] (10^-9 M) is listed as 100%. For the same compound, in experiment [1] (10^-10 M), the “% Active” value was 50.0%. For the same compound, the “% Active” value in experiment [1] (10^-11 M) is 28.2%. Further, in experiment [1], the EC50 worked out at 0.1 nM, the “activity relative to all trans-retinoic acid” value was “only one log unit less than the standard all trans-retinoic acid” and the “activity (in words)” value is “good activity”.

As to `C/C(=C\c1ccc(C=O)cc1)c1ccc2c(c1)C(C)(C)CCO2` [compound 36], in experiment [3] (setting [7]), the “% of Inhibition as Compared to Control” value turned out to be 34% and the “ODC Activity” value was 3.5 ± 0.2 nmol CO2 /60 min/mg protein. Besides, in experiment [3], the “activity in inhibiting ODC induction” value is listed as “less active”. Further, the “relative activities” value in experiment [3] (setting [8]) is recorded as “trans-retinoic acid >24>35>36”.

For `COC(=O)c1ccc(/C=C(\C)c2ccc3c(c2)C(C)(C)CCO3)cc1` [compound 31, Methyl (E)-4-[2-(3,4-Dihydro-4,4-dimethyl-2-H-1-benzopyran-6-yl)-1-propenyl]benzoate], the “cells induced to differentiate” value in experiment [2] is given as “approximately 15%”. For the same compound, the EC50 in experiment [2] (setting [4]) is greater than 3000 nM. In experiment [3] (setting [5]), the “% of Inhibition as Compared to Control” value stood at 43% and the “ODC Activity” value was 0.95 ± 0.06 nmol CO2 /60 min/mg protein. Further, the “relative activities” value in experiment [3] (setting [6]) is on record as 13-cis-retinoic acid 31>34. In experiment [3], the “activity in inhibiting ODC induction” value is on record as “less active”.

Consider `C/C(=C\c1ccc(C(=O)O)cc1)c1ccc2c(c1)C(C)(C)CCO2` [(X = O, R = H), (E)-4-[2-(3,4-Dihydro-4,4-dimethyl-2H-1-benzopyran-6-yl)-1-propenyl]benzoic Acid], for which the “% Active” value was 100% in experiment [1] (10^-8 M), 100% in experiment [1] (10^-9 M), 57.1% in experiment [1] (10^-10 M) and 11.14% in experiment [1] (10^-11 M). Besides, the EC50 in experiment [1] is 0.2 nM. In experiment [1], the “activity relative to all trans-retinoic acid” value was “only one log unit less than the standard all trans-retinoic acid”. The “activity (in words)” value in experiment [1] is “good activity”.

Consider `C/C(=C\c1ccc(C(=O)O)cc1)c1ccc2c(c1)C(C)(C)CCO2` [acid derived from 34], for which the “cells induced to differentiate” value in experiment [2] was “approximately 15%”. Also, the EC50 in experiment [2] (setting [4]) was greater than 3000 nM; in experiment [2] (HL-60, restated in discussion, read-out: ED50 (the source's name)), less than 3000 nM.

In the case of `COC(=O)c1ccc(/C=C(/C)c2ccc3c(c2)C(C)(C)CO3)cc1` [compound 25], in experiment [2], the “cells induced to differentiate” value lay in the range of 3 to 5%.

For the origin of these results see patent US4826984A, “Heteroarotinoid compounds as anticancer agents” (The Board of Regents for the Oklahoma Agricultural and …, priority 1987, dated 1989).
